Molecular target: T1, Human HPK1, catalytic domain (Homo sapiens, UniProt Q92918)
T1 sequence (Q92918 1-346): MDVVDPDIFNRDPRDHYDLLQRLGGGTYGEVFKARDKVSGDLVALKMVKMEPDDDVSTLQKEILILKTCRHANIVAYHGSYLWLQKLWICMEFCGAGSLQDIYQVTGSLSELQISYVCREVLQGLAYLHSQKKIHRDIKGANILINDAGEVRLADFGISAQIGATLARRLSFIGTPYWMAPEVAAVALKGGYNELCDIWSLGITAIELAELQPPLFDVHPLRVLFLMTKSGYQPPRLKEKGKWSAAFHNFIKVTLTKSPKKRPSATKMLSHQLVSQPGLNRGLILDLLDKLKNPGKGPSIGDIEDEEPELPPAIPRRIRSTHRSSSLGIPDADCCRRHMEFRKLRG
Assay: HPK1-SLP76 TR-FRET Assay
Assay type: biochemical
Conditions: 75 pM HPK1, ATP 10 uM, SLP76 10 nM, 30 min pre-incubation, 60 min reaction

SMILES: COc1cc(CS(C)(=O)=O)ccc1Nc1ncc2c(N)c(F)c(-c3cnc4c(c3C)NCCO4)c(Cl)c2n1 (single isomer, unassigned) [Compound 2-99, (+ or −)-8-chloro-6-fluoro-N~2~-{2-methoxy-4-[(methylsulfonyl)methyl]phenyl}-7-(8-methyl-2,3-dihydro-1H-pyrido[2,3-b][1,4]oxazin-7-yl)quinazoline-2,5-diamine]
- IC50: 12.7 nM

SMILES: Cc1c(-c2cc3nc(Nc4ccc(C5CCN(C)C5=O)cc4)ncc3cc2F)cnc2c1NCCO2 (single isomer, unassigned) [Compound 1-125, (R or S)-3-(4-{[6-fluoro-7-(8-methyl-2,3-dihydro-1H-pyrido[2,3-b][1,4]oxazin-7-yl)quinazolin-2-yl]amino}phenyl)-1-methylpyrrolidin-2-one]
- IC50: 0.0606 nM

SMILES: CNC(=O)C(C)c1ccc(Nc2ncc3cc(F)c(-c4cnc5c(c4C)NCCO5)cc3n2)cc1 (single isomer, unassigned) [Compound 1-116, (R or S)-2-(4-{[6-fluoro-7-(8-methyl-2,3-dihydro-1H-pyrido[2,3-b][1,4]oxazin-7-yl)quinazolin-2-yl]amino}phenyl)-N-methylpropanamide]
- IC50: 0.221 nM

SMILES: COc1cc2c(cc1Nc1ncc3c(N)cc(N4C(=O)OC[C@@H]4C)cc3n1)CN(C)CC2 [Compound 3-17, (S)-3-{5-amino-2-[(6-methoxy-2-methyl-1,2,3,4-tetrahydroiso-quinolin-7-yl)amino]quinazolin-7-yl}-4-methyl-1,3-oxazolidin-2-one]
- IC50: 0.0757 nM

SMILES: COc1cc2c(cc1Nc1ncc3ccc(-c4cccc(C(=O)NCCN5CCCC5)c4)cc3n1)CNCC2 [Compound 1-83, 3-{2-[(6-methoxy-1,2,3,4-tetrahydroisoquinolin-7-yl)amino]quinazolin-7-yl}-N-[2-(pyrrolidin-1-yl)ethyl]benzamide]
- IC50: 222 nM

SMILES: Cc1ccncc1-c1cc2nc(Nc3ccc4c(c3)CN(C)CC4)ncc2c(N)c1F [Compound 2-122, 6-fluoro-7-(4-methylpyridin-3-yl)-N~2~- (2-methyl-1,2,3,4-tetrahydroisoquinolin-7-yl)quinazoline-2,5-diamine]
- IC50: 0.22 nM

SMILES: COc1cc2c(cc1Nc1ncc3ccc(-n4nc(C)nc4C4CCCN4)cc3n1)CN(C)CC2 (racemic) [Compound 3-19, (S and R)-N-(6-methoxy-2-meth-yl-1,2,3,4-tetrahydroisoquinolin-7-yl)-7-[3-methyl-5-(pyrrolidin-2-yl)-1H-1,2,4-triazol-1-yl]quin-azolin-2-amine]
- IC50: 638 nM

SMILES: COc1cc2c(cc1Nc1ncc3ccc(NC4CCN(C(C)=O)CC4)cc3n1)CN(C)CC2 [Compound 3-38, 1-[4-({2-[(6-methoxy-2-methyl-1,2,3,4-tetrahydroisoquinolin-7-yl)amino]quinazolin-7-yl}-amino)piperidin-1-yl]ethan-1-one]
- IC50: 369 nM

SMILES: COc1cc2c(cc1Nc1ncc3ccc(NC4CCCOC4)cc3n1)CN(C)CC2 (racemic) [Compound 3-69, (S and R)-N-2~-(6-methoxy-2-methyl-1,2,3,4-tetrahydroiso-quinolin-7-yl)-N~7~-(oxan-3-yl)quinazoline-2,7-diamine]
- IC50: 470 nM

SMILES: COc1cc2c(cc1Nc1ncc3ccc(OCC4CCNCC4)cc3n1)CN(C)CC2 [Compound 4-3, N-(6-methoxy-2-methyl-1,2,3,4-tetrahydroisoquin-olin-7-yl)-7-[(piperidin-4-yl)methoxy]quinazolin-2-amine]
- IC50: 377 nM

SMILES: CN1CCc2ccc(Nc3ncc4c(N)c(F)c(-c5cnc6c(c5Cl)NCCO6)cc4n3)cc2C1 [Compound 2-124, 7-(8-chloro-2,3-dihydro-1H-pyrido[2,3-b][1,4]oxazin-7-yl)-6-fluoro-N~2~-(2-methyl-1,2,3,4-tetrahydroisoquinolin-7-yl)quinazoline-2,5-diamine]
- IC50: 0.0474 nM

SMILES: CNC(=O)C1(c2ccc(Nc3ncc4c(N)c(F)c(-c5cnc6c(c5C)NCCO6)cc4n3)cc2)CCCC1 [Compound 2-83, 1-(4-((5-amino-6-fluoro-7-(8-methyl-2,3-dihydro-1H-pyrido[2,3-b][1,4]oxazin-7-yl)quinazolin-2-yl)amino)phenyl)-N-methylcyclopentane-1-carboxamide]
- IC50: 0.0417 nM

SMILES: COc1cc(CS(C)(=O)=O)ccc1Nc1ncc2c(N)c(F)c(-c3cnc4c(c3C)NCCO4)cc2n1 [Compound 2-50, 6-fluoro-N2-(2-methoxy-4-((methylsulfonyl)methyl)phenyl)-7-(8-methyl-2,3-dihydro-1H-pyrido[2,3-b][1,4]oxazin-7-yl)quinazoline-2,5-diamine]
- IC50: 0.0594 nM

SMILES: Cc1c(-c2cc3nc(Nc4cc5c(cc4Cl)CCN(C)C5)ncc3c(N)c2F)cnc2c1NCCO2 [Compound 2-64, N~2~-(6-chloro-2-methyl-1,2,3,4-tetrahydroisoquinolin-7-yl)-6-fluoro-7-(8-methyl-2,3-dihydro-1H-pyrido[2,3-b][1,4]oxazin-7-yl)quinazoline-2,5-diamine]
- IC50: 0.782 nM

SMILES: COc1cc2c(cc1Nc1ncc3ccc(N4CC(CN)OC4=O)cc3n1)CN(C)CC2 (racemic) [Compound 3-11, (S and R)-5-(aminomethyl)-3-{2-[(6-methoxy-2-methyl-1,2,3,4-tetrahydroisoquinolin-7-yl)amino]quinazolin-7-yl}-1,3-oxazolidin-2-one]
- IC50: 82.4 nM

SMILES: COc1cc2c(cc1Nc1ncc3ccc(-c4cccc(C5CCC(=O)N5)c4)cc3n1)CN(C)CC2 (racemic) [Compound 1-99, (R and S)-5-(3-{2-[(6-methoxy-2-methyl-1,2,3,4-tetrahydroisoquinolin-7-yl)amino]quinazolin-7-yl}phenyl)pyrrolidin-2-one]
- IC50: 120 nM

SMILES: COc1cc2c(cc1Nc1ncc3ccc(Nc4ccc(C)c(S(N)(=O)=O)c4)cc3n1)CN(C)CC2 [Compound 3-44, 5-({2-[(6-methoxy-2-methyl-1,2,3,4-tetrahydroisoquinolin-7-yl)amino]quinazolin-7-yl}-amino)-2-methylbenzene-1-sulfonamide]
- IC50: 13 nM

SMILES: COc1cc2c(cc1Nc1ncc3ccc(NCc4ccc5c(c4)C(=O)NC5)cc3n1)CN(C)CC2 [Compound 3-28, 6-[({2-[(6-methoxy-2-methyl-1,2,3,4-tetrahydroisoquinolin-7-yl)amino]quinazolin-7-yl}-amino)methyl]-2,3-dihydro-1H-isoindol-1-one]
- IC50: 51.8 nM

SMILES: COc1cc2c(cc1Nc1ncc3ccc(-c4cncc5cccnc45)cc3n1)CN(C)CC2 [Compound 1-24, N-(6-methoxy-2-methyl-1,2,3,4-tetrahydroisoquinolin-7-yl)-7-(1,6-naphthyridin-8-yl)quinazolin-2-amine]
- IC50: 10.5 nM

SMILES: Cc1c(-c2cc3nc(Nc4ccc5c(c4)CN(C)CC5)ncc3c(N)c2F)cnc2c1NCC(C)(C)O2 [Compound 2-166, 6-fluoro-N~2~-(2-methyl-1,2,3,4-tetrahydroisoquinolin-7-yl)-7-(3,3,8-trimethyl-2,3-dihydro-1H-pyrido[2,3-b][1,4]oxazin-7-yl)quinazoline-2,5-diamine]
- IC50: 0.0589 nM

SMILES: Cc1c(-c2cc3nc(Nc4ccc(CS(C)(=O)=O)c(F)c4)ncc3c(N)c2F)cnc2c1NCCO2 [Compound 2-114, 6-fluoro-N~2~-{3-fluoro-4-[(methanesulfonyl)methyl]phenyl}-7-(8-methyl-2,3-dihydro-1H-pyrido[2,3-b][1,4]oxazin-7-yl)quinazoline-2,5-diamine]
- IC50: 0.0654 nM

SMILES: COc1cc2c(cc1Nc1ncc3ccc(N4CC5CCS(=O)(=O)C5C4)cc3n1)CN(C)CC2 (racemic) [Compound 3-60, (±)-5-{2~-[(6-methoxy-2-meth-yl-1,2,3,4-tetrahydroisoquinolin-7-yl)amino]quinazolin-7-yl}-hexahydro-1lambda~6~-thieno-[2,3-c]pyrrole-1,1(2H)-dione]
- IC50: 807 nM

SMILES: Cc1ccc(C#N)cc1-c1cc2nc(Nc3ccc(CS(C)(=O)=O)cc3)ncc2c(N)c1F [Compound 2-53, 3-[5-amino-6-fluoro-2-({4-[(methylsulfonyl)methyl]phenyl}amino)quinazolin-7-yl]-4-methylbenzonitrile]
- IC50: 131 nM

SMILES: COc1cc2c(cc1Nc1ncc3ccc(Nc4cc(S(C)(=O)=O)c(C)cc4C)cc3n1)CN(C)CC2 [Compound 3-42, N~7~-[2,4-dimethyl-5-(methyl-sulfonyl)phenyl]-N~2~-(6-methoxy-2-methyl-1,2,3,4-tetra-hydroisoquinolin-7-yl)quinaz-oline-2,7-diamine]
- IC50: 3.17 nM

SMILES: COc1cc2c(cc1Nc1ncc3ccc(N4C(=O)OC[C@H]4C(C)C)cc3n1)CN(C)CC2 [Compound 3-10, (4R)-3-{2-[(6-methoxy-2-meth-yl-1,2,3,4-tetrahydroisoquinolin-7-yl)amino]quinazolin-7-yl}-4-(propan-2-yl)-1,3-oxazolidin-2-one]
- IC50: 107 nM

SMILES: COc1ccc(Nc2ncc3c(N)c(F)c(-c4cnc5c(c4C)NCCO5)cc3n2)c(C)n1 [Compound 2-77, 6-fluoro-N~2~-(6-methoxy-2-methylpyridin-3-yl)-7-(8-methyl-2,3-dihydro-1H-pyrido[2,3-b][1,4]oxazin-7-yl)quinazoline-2,5-diamine]
- IC50: 0.782 nM

SMILES: Cc1ccncc1-c1cc2nc(Nc3ccc(CS(C)(=O)=O)cc3)ncc2c(N)c1F [Compound 2-44, 6-fluoro-7-(4-methylpyridin-3-yl)-N~2~- {4-[(methylsulfonyl)methyl]phenyl}quinazoline-2,5-diamine]
- IC50: 0.194 nM

SMILES: COc1cc2c(cc1Nc1ncc3c(N)c(F)c(-c4cnc5c(c4C)NCCO5)c(Cl)c3n1)CN(C)CC21CC1 (single isomer, unassigned) [Compound 2-163, 8-chloro-6-fluoro-N~2~- (6′-methoxy-2′-methyl-2′,3′-dihydro-1′H-spiro[cyclopropane-1,4′-isoquinolin]-7′-yl)-7-(8-methyl-2,3-dihydro-1H-pyrido[2,3-b][1,4]oxazin-7-yl)quinazoline-2,5-diamine]
- IC50: 0.0588 nM

Reference: patent publication US20230399341A1, “7-PHENYL SUBSTITUTED 2-AMINOQUINAZOLINE INHIBITORS OF HPK1” (MERCK SHARP & DOHME LLC, priority 2020, published 2023)
